Measurements: patent publication US20260219279A1, “IMPROVED HIGH-THROUGHPUT HYDROGEN-DEUTERIUM EXCHANGE-MASS SPECTROMETRY SYSTEM AND METHOD” (THE BOARD OF REGENTS OF THE UNIVERSITY OF OKLAHOMA, priority 2023, published 2026)

What was measured:
60 kDa chaperonin = molecular target: T1, 60 kDa chaperonin (Escherichia coli, UniProt P0A6F5); assay: Differential PTD-HDX-MS in 60° C.-depleted E. coli cell lysate; type: binding; conditions: 60° C.-PTD sample
T1 construct: endogenous in cells; host or cells: E. coli cell lysate
T1 sequence (P0A6F5 2-548): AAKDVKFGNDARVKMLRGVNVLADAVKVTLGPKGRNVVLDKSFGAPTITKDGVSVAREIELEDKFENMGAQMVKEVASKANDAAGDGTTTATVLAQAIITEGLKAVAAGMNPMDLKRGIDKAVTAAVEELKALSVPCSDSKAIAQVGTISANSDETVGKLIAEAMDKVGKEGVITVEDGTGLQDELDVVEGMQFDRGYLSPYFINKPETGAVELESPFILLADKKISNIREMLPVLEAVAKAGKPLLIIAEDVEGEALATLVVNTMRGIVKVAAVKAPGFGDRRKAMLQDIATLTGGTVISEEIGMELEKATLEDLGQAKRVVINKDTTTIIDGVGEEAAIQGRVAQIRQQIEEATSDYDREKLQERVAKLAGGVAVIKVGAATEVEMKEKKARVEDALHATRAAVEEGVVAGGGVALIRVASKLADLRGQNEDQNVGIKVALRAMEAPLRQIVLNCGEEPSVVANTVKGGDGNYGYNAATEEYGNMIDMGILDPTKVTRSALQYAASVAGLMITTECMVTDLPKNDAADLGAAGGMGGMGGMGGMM
Procedure: (§1) Samples were prepared in triplicate.
(§2) The flowrate was controlled at 150 μL/min.
(§3) The decoy database was automatically generated in MSGF+ software.

[1] = molecular target: T2, alkyl hydroperoxide reductase C (Escherichia coli, UniProt P0AE08); assay: as above; type: binding; conditions: 60° C.-PTD sample
T2 construct: endogenous in cells; host or cells: E. coli cell lysate
T2 sequence (P0AE08 2-187): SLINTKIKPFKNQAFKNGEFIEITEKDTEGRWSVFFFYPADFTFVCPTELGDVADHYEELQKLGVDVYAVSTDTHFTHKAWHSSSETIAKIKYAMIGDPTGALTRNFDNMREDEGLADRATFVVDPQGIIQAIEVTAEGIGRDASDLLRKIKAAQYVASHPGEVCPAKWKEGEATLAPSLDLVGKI
Procedure: as §1, §2, §3

SMILES: CC(=O)Nc1nnc(S(N)(=O)=O)s1 [AZM, Acetazolamide]
- deuterium uptake difference of characterized peptides following AZM treatment (60 kDa chaperonin): no significant differences
- deuterium uptake difference of characterized peptides following AZM treatment [1]: no significant differences
